Non-standard residues stand in square brackets, D forms with d. Residues, ends and D or L forms follow the SMILES beside them. *: point of attachment. Decanoyl = CCCCCCCCCC(=O)*
Columns and labels:
[1] = test system: S. aureus USA300 transposon mutant SAUSA300_0394; assay: Antimicrobial susceptibility of transposon mutant; assay type: cell-based; set-up: key: No = no MIC changes of C10-KR8d against the WT and the mutant S. aureus strains measured in 50% TSB; settings: mutant SAUSA300_0394 versus WT
Description: (§1) The antimicrobial susceptibility of over 20 MRSA transposon mutants were also tested, based on a transposon library screening, in the presence of LL-37 peptides (Golla, et al. (2020) ACS Infect. Dis., 6:1866-1881). This Nebraska Transposon Mutant Library of S. aureus USA300 consists of 1920 mutants, each with one nonessential gene disabled due to a transposon insertion (Fey, et al. (2013) mBio 4:e00537-12). The correct insertion of the transposon to each Staph mutant had been verified (Golla, et al. (2020) ACS Infect. Dis., 6:1866-1881). Antimicrobial susceptibility to the new peptide C10-KR8d was evaluated in the same manner as MIC assays. Susceptible strains could be inhibited at a peptide concentration lower than the MIC against the wild strain S. aureus JE2.

[2] = test system: S. aureus USA300 transposon mutant SAUSA300_1898; assay: Antimicrobial susceptibility of transposon mutant; assay type: cell-based; set-up: key: No = no MIC changes of C10-KR8d against the WT and the mutant S. aureus strains measured in 50% TSB; settings: mutant SAUSA300_1898 versus WT
Description: as §1

S. aureus USA300 LAC [3] = assay: Bacterial membrane permeation (propidium iodide); assay type: cell-based; settings: 12.5 μM
Description: The experiment was performed as described with minor modifications (Mishra, et al. (2019) Proc. Natl. Acad. Sci., 116:13517-13522). Serially diluted 10×peptides (10 μL each well) were created in 96-well microtiter plates. Propidium iodide (2 μL) at a fixed concentration of 20 μM was added to each well followed by 88 μL of the exponential phase S. aureus USA300 culture (a final OD600˜0.1 in TSB media or PBS). Both daptomycin (98%, TSZChem, MA) and rifamycin (98%, Alfa Aesar, MA) were used as controls. The plate was incubated at 37° C. with continuous shaking at 100 rpm in a FLUOstar® Omega (BMG LABTECH, NC) microplate reader. The samples fluorescence was read at every 5 minutes for 24 cycles with excitation and emission wavelengths of 584 and 620 nm, respectively. Plots were generated using average values from the experiments using GraphPad Prism 7.

S. aureus USA300 LAC [4] = assay: Catheter-associated murine biofilm model; assay type: in vivo, mice; settings: single dose 15 mg/kg (250 μg) into and around catheter, day 3
Description: Peptide potency was evaluated in the catheter model as described (Wang, et al. (2014) ACS Chem. Biol., 9:1997-2002; Heim, et al. (2014) Methods Mol. Biol., 1106:183-191). On the day of infection, mice were anesthetized using ketamine/xylazine (100/10 mg/kg). A small incision was made on the left flank region of the mouse, and using small blunt spatula, a pouch was made for catheter insertion. A sterile catheter with a length of 1 cm was inserted into the pouch aseptically. The wound was sealed using wound closure VetBond™ glue. Bacterial inoculum (20 μL with 10^3 CFU) was injected into the lumen of the catheter. Two hours post infection, the peptide was injected at 15 mg/kg (50 μL at each of the five sites in and around the catheter). Mice were allowed full recovery from anesthesia in an oxygen-enriched chamber. Three days after infection, untreated and treated animal groups were CO2 euthanized and the tissue around the catheter was harvested along with the catheter. A bacterial uninfected catheter group was included as a negative control. All the catheters were sonicated at 37 kHz for 15 minutes to release the bacteria in biofilms, and the tissues were homogenized. […] Degree of significance was represented as *p<0.05**p<0.01, ***p<0.001, and NS means no significance (determined by nonparametric, unpaired, Mann-Whitney test).

S. aureus USA300 = assay: Bacterial membrane depolarization (DiBAC4(3)); assay type: cell-based; settings: 3.1, 6.25, 12.5, and 25 μM; 40 minutes
Description: The experiment was conducted as described (Marks, et al. (2013) PLOS One 8:e63158). In brief, an overnight culture of S. aureus USA300 was subcultured in a fresh TSB medium and grown to the exponential phase. Cells were spun using centrifugation, washed 2× with PBS, resuspended in twice the volume of PBS containing 25 mM glucose, and incubated at 37° C. for 15 minute. For membrane depolarization measurements, 500 nM (final concentration) of the dye DiBAC4 (3) bis(1,3-dibutylbarbituric acid) trimethine oxonol (ANASPEC, CA) was added, and the reaction mixture was vortexed gently. Aliquots of 90 μL of the energized bacteria solution were loaded to the wells, and the plate was fed into a FLUOstar® Omega microplate reader. Fluorescence was read for 20 minutes at excitation and emission wavelengths of 485 and 520 nm, respectively, to get dye normalization. Then, 10 μL of the peptide solution was added and gently mixed. Fluorescence readings were recorded for 40 minutes, where Triton™ X-100 (0.1%) was used as a positive control.

S. aureus USA300 LAC [5] = assay: Neutropenic murine infection model, systemic efficacy; assay type: in vivo, C57BL/6 mice; settings: 5 mg/kg i.p. single dose 2 hours post infection, versus untreated
Description: Female C57BL/6 mice (6 weeks old) were purchased from Charles River. After environmental adaptation, mice were induced to be neutropenic by the administration of two doses of cyclophosphamide on Day 1 (150 mg/kg) and Day 4 (100 mg/kg). On Day 5, mice were infected with S. aureus USA300 (˜2×10^6 CFU per mouse) via intraperitoneal injection (i.p.) (Lakshmaia, et al. (2020) Proc. Natl. Acad. Sci., 117:19446-19454). For the treatment groups, mice were i.p. treated 2 hours post infection with peptides at a single dose of 5 mg/kg. This bacterial strain was able to disseminate to different organs 2 hours post infection (Lakshmaia, et al. (2020) Proc. Natl. Acad. Sci., 117:19446-19454). At the end of the experiments, all the animals were sacrificed according to institutional guidelines. Organs, including spleen, liver, lung, and kidney, were harvested, weighed, and placed in 1 mL of sterile PBS and stored on ice. Harvested organs were subsequently homogenized using an Omni Homogenizer. Proper dilutions were made to get countable colonies. The homogenates were plated onto blood agar plates and incubated overnight at 37° C. The CFU of each murine tissue was plotted as an individual point, and error bars represent the deviation within the experimental group. * indicates p<0.05, **p<0.01, ***p<0.001, and NS means no significance (determined by Mann-Whitney test).

## CCCCCCCCCC(=O)N[C@H](CCCCN)C(=O)N[C@H](CCCNC(=N)N)C(=O)N[C@@H](C(=O)N[C@H](Cc1c[nH]c2ccccc12)C(=O)N[C@H](CCC(N)=O)C(=O)N[C@H](CCCNC(=N)N)C(=O)N[C@@H](C(=O)N[C@H](CCCCN)C(N)=O)[C@H](C)CC)[C@H](C)CC [Peptide C10-KR8d] (Decanoyl-[dK][dR][dI][dW][dQ][dR][dI][dK]-NH2)
[1]
  Susceptible?: No
[2]
  Susceptible?: No
S. aureus USA300 LAC [3]
  membrane permeation (propidium iodide fluorescence): able to permeate the membranes of S. aureus USA300 LAC
S. aureus USA300 LAC [4]
  bacterial burden (CFU) on catheter and surrounding tissue: clear decrease in bacterial burden
S. aureus USA300
  membrane depolarization ability (order): Triton™ X-100>17BIPHE2>C10-KR8d>daptomycin
S. aureus USA300 LAC [5]
  CFU decrease in mouse lung and liver: 0.5-1 log
  CFU decrease in spleen and kidney: not in spleen and kidney

— US20240294572A1, “Antimicrobial Peptides” (priority 2021, published 2024)
